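Five compound concentrations were applied to cells in 96-well plates for 48 hours; endpoints were derived by simple linear interpolation of the resulting dose-response curve. TGI is the concentration that stops growth completely.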
Experiments:
Assay in all cases: growth of human tumour cells (NCI), 48 h
IGROV1 ovarian = system: IGROV1 ovarian
SK-MEL-5 melanoma = system: SK-MEL-5 melanoma
XF 498 CNS = system: XF 498 CNS
DMS 273 small cell lung = system: DMS 273 small cell lung
SF-268 CNS = system: SF-268 CNS
DLD-1 colon = system: DLD-1 colon
UACC-257 melanoma = system: UACC-257 melanoma
KM20L2 colon = system: KM20L2 colon
HCT-15 colon = system: HCT-15 colon
A498 renal = system: A498 renal
SNB-78 CNS = system: SNB-78 CNS
M19-MEL melanoma = system: M19-MEL melanoma
SR leukemia = system: SR leukemia

With `CCc1cccc(C(C)C)c1N1C(=O)C(=O)C(c2nc3ccccc3s2)C(=O)C1=O` the TGI (IGROV1 ovarian) was over 50 µM, the TGI (SK-MEL-5 melanoma) was over 50 µM and the TGI (XF 498 CNS) was over 50 µM. For the same compound, the TGI (DMS 273 small cell lung) was over 50 µM, the TGI (SF-268 CNS) was over 50 µM and the TGI (DLD-1 colon) was over 50 µM. The TGI (UACC-257 melanoma) was over 50 µM, the TGI (KM20L2 colon) was over 50 µM and the TGI (HCT-15 colon) was over 50 µM. It also gave a TGI (A498 renal) of over 50 µM, a TGI (SNB-78 CNS) of over 50 µM and a TGI (M19-MEL melanoma) of over 50 µM.

`C1CCN(c2nc(=[N+]3CCCCC3)ss2)CC1` showed a TGI (IGROV1 ovarian) of over 100 µM, a TGI (SK-MEL-5 melanoma) of over 100 µM and a TGI (XF 498 CNS) of over 100 µM. It also gave a TGI (DMS 273 small cell lung) of over 100 µM, a TGI (SF-268 CNS) of over 100 µM and a TGI (DLD-1 colon) of over 100 µM. It also gave a TGI (UACC-257 melanoma) of over 100 µM, a TGI (KM20L2 colon) of over 100 µM and a TGI (HCT-15 colon) of over 100 µM. The TGI (A498 renal) was over 100 µM, the TGI (SNB-78 CNS) was over 100 µM and the TGI (M19-MEL melanoma) was over 100 µM. The TGI (SR leukemia) was over 100 µM.

For `O=C(Nc1nc2ncn(CCNCc3ccccc3)c2c(=O)[nH]1)c1ccccc1`, the TGI (IGROV1 ovarian) was over 100 µM, the TGI (SK-MEL-5 melanoma) was over 100 µM and the TGI (DMS 273 small cell lung) was over 100 µM. The TGI (SF-268 CNS) was over 100 µM, the TGI (DLD-1 colon) was over 100 µM and the TGI (UACC-257 melanoma) was over 100 µM. For the same compound, the TGI (KM20L2 colon) was over 100 µM, the TGI (HCT-15 colon) was over 100 µM and the TGI (A498 renal) was over 100 µM. For the same compound, the TGI (SNB-78 CNS) was over 100 µM, the TGI (M19-MEL melanoma) was over 100 µM and the TGI (SR leukemia) was over 100 µM.

Work on `CC1C[C@@H]2C(=O)NC(=O)[C@@H]2c2c1c1ccccc1n2C` (stereo partly drawn) yielded a TGI (IGROV1 ovarian) of over 100 µM, a TGI (SK-MEL-5 melanoma) of over 100 µM and a TGI (XF 498 CNS) of over 100 µM. For the same compound, the TGI (DMS 273 small cell lung) was over 100 µM, the TGI (SF-268 CNS) was over 100 µM and the TGI (DLD-1 colon) was over 100 µM. It also gave a TGI (UACC-257 melanoma) of over 100 µM, a TGI (KM20L2 colon) of over 100 µM and a TGI (HCT-15 colon) of over 100 µM. The TGI (A498 renal) was over 100 µM, the TGI (SNB-78 CNS) was over 100 µM and the TGI (M19-MEL melanoma) was over 100 µM.

With `O=C(Cn1ccnc1[N+](=O)[O-])c1ccc(F)cc1` the TGI (IGROV1 ovarian) was over 100 µM, the TGI (SK-MEL-5 melanoma) was over 100 µM and the TGI (XF 498 CNS) was over 100 µM. For the same compound, the TGI (DMS 273 small cell lung) was over 100 µM, the TGI (SF-268 CNS) was over 100 µM and the TGI (UACC-257 melanoma) was over 100 µM. For the same compound, the TGI (KM20L2 colon) was over 100 µM, the TGI (HCT-15 colon) was over 100 µM and the TGI (A498 renal) was over 100 µM. The TGI (M19-MEL melanoma) was over 100 µM.

For `O=[N+]([O-])c1cccc(C2ON2C2CCCCC2)c1` (stereo not drawn), the TGI (IGROV1 ovarian) was 44.8 µM, the TGI (SK-MEL-5 melanoma) was 33 µM and the TGI (DMS 273 small cell lung) was 41.5 µM. For the same compound, the TGI (SF-268 CNS) was 51 µM, the TGI (DLD-1 colon) was 29.9 µM and the TGI (UACC-257 melanoma) was 49.6 µM. The TGI (KM20L2 colon) was 49.3 µM, the TGI (HCT-15 colon) was 30.7 µM and the TGI (A498 renal) was 90.1 µM. It also gave a TGI (SNB-78 CNS) of over 100 µM, a TGI (M19-MEL melanoma) of 39.9 µM and a TGI (SR leukemia) of 7.81 µM.

Compound `CC(C)(C)c1cc2c3c(c1)C(C(F)(F)F)(C(F)(F)F)O[Te]3(C)OC2(C(F)(F)F)C(F)(F)F` has a TGI (IGROV1 ovarian) of over 100 µM, a TGI (XF 498 CNS) of over 100 µM and a TGI (DMS 273 small cell lung) of over 100 µM. It also gave a TGI (SF-268 CNS) of over 100 µM, a TGI (DLD-1 colon) of over 100 µM and a TGI (UACC-257 melanoma) of over 100 µM. For the same compound, the TGI (KM20L2 colon) was over 100 µM, the TGI (HCT-15 colon) was over 100 µM and the TGI (SNB-78 CNS) was over 100 µM. It also gave a TGI (M19-MEL melanoma) of over 100 µM and a TGI (SR leukemia) of over 100 µM.

With `NCCCNCCCCN(CCCN)/[N+]([O-])=N\O` the TGI (IGROV1 ovarian) was over 100 µM, the TGI (SK-MEL-5 melanoma) was over 100 µM and the TGI (DMS 273 small cell lung) was over 100 µM. It also gave a TGI (SF-268 CNS) of over 100 µM, a TGI (DLD-1 colon) of over 100 µM and a TGI (UACC-257 melanoma) of over 100 µM. It also gave a TGI (KM20L2 colon) of over 100 µM, a TGI (HCT-15 colon) of over 100 µM and a TGI (SNB-78 CNS) of over 100 µM. The TGI (M19-MEL melanoma) was over 100 µM and the TGI (SR leukemia) was 83.9 µM.

`S=c1cc(S)sc2c1c(=S)sc1nc3ccccn3c(=S)c12` was tested, and the TGI (SK-MEL-5 melanoma) was over 100 µM, the TGI (XF 498 CNS) was over 100 µM and the TGI (DMS 273 small cell lung) was over 100 µM. For the same compound, the TGI (DLD-1 colon) was over 100 µM, the TGI (KM20L2 colon) was over 100 µM and the TGI (HCT-15 colon) was over 100 µM. The TGI (A498 renal) was over 100 µM, the TGI (SNB-78 CNS) was over 100 µM and the TGI (M19-MEL melanoma) was over 100 µM. For the same compound, the TGI (SR leukemia) was over 100 µM.
